This is an account of results in patent publication US20110245249A1, “Heterocyclically Substituted Anilinopyrimidines” (Bayer CropScience AG, priority 2008, published 2011).

The test system of data set [1] is Production of DON/acetyl-DON by Fusarium graminearum. Put plainly: microbe, parasite or virus in culture. Type of data set: cell-based. The note with it: 168 h, 7 days at 28° C., read-out: activity in the inhibition of DON/AcDON.
Data set [2] concerns Production of Fumonisin FB1 by Fusarium proliferatum. Put plainly: Production of Fumonisin FB1 by Fusarium proliferatum. The note with it: FB1 in liquid medium after 6 days at 20° C., HPLC-MS/MS; for IC50: Fusarium proliferatum, 144 h, read-out: pI50 Fum (converted). The data set is classed as cell-based.
A short description of data set [3]: logP by HPLC on reversed-phase columns (EEC Directive 79/831 Annex V.A8). Type of data set: physicochemical. As to conditions: for log p [c]: pH 7.8. The essentials: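 Values come from three gradient methods (10% to 95% acetonitrile) on C18 columns following EEC 79/831 Annex V.A8: LC-MS at pH 7.8 (0.001 molar ammonium bicarbonate), LC-MS at pH 2.7 (formic acid 0.1%, also in acetonitrile), and HPLC at pH 2.3 (phosphoric acid 0.1%).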

For data set [4], the system named is Fusarium proliferatum. The experiment in a line: Growth of Fusarium proliferatum (OD620) in the fumonisin test. The note with it: for IC50: Fusarium proliferatum, 144 h, read-out: pI50 growth; for pI50 growth: OD620 at the beginning and after 6 days. Type of data set: cell-based.
Data set [5] has as its system Phakopsora pachyrhizi. The experiment in a line: Phakopsora test (soya beans)/protective. Type of data set: in vivo. The note with it: protective, active compound concentration 250 ppm, evaluation 1 day after inoculation. Here is the method:
Phakopsora Test (Soya Beans)/Protective
Evaluation is carried out 1 day after the inoculation.

With `Clc1cnc(Nc2cccc(C3OCCO3)c2)nc1NC1CC1` [Example 1, 5-Chloro-N^4-cyclopropyl-N^2-[3-(1,3-dioxolan-2-yl)phenyl]pyrimidine-2,4-diamine], the inhibition at 50 µM in data set [1] was > 80%. Besides, the IC50 is 158 nM in data set [2] and 398 nM in data set [4]. The chromatographic logP (usually a lipophilicity value derived from retention on a column) in data set [3] (pH 2.7, log p [b]) stood at 1.59; in data set [3] (pH 2.7, logP (pH 2.7)), 1.59; in data set [3] (pH 7.8, log p [c]), 2.67.
Consider `CC1(c2ccc(Nc3ncc(Cl)c(NC4CC4)n3)cc2)OCCO1` [Example 27, 5-Chloro-N^4-cyclopropyl-N^2-[4-(2-methyl-1,3-dioxolan-2-yl)phenyl]pyrimidine-2,4-diamine], for which the IC50 is 398 nM in data set [2] and 1000 nM in data set [4]. The chromatographic logP in data set [3] (pH 2.7, log p [b]) is 1.84; in data set [3] (pH 2.7, logP (pH 2.7)) it was 1.84; in data set [3] (pH 7.8, log p [c]) it was 2.99.
Take `CC(C)(C)C1COC(c2cccc(Nc3ncc(Cl)c(NC4CC4)n3)c2)O1` (stereo not shown) [Example 30]: the “pI50 Fum” value in data set [2] came to 6. Moreover, the “log p [c]” value in data set [3] is 4.34[c]. For the same compound, the pI50 growth in data set [4] was determined as 5.3.
Turning to `COCC1COC(c2cccc(Nc3ncc(C(F)(F)F)c(NC4CC4)n3)c2)O1` (stereo not shown) [Example 105], the efficacy in data set [5] is ≥ 80%. Besides, the “log p [a]” value in data set [3] (pH 2.3) is recorded as 2.26. The “log p [b]” value in data set [3] (pH 2.7) is 2.74[b]. Also, the “log p [c]” value in data set [3] came to 3.23. This compound also showed a pI50 growth in data set [4] of 5.5.
